Experimental data taken from ChEMBL document CHEMBL1201862, “PubChem BioAssay data set” (2004).
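Assay format: 96-well plates, 48-hour exposure. GI50: concentration for 50% inhibition of growth.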 Calls of active or inactive are those of the source. Cut-off read from the data, not from the text of the source: active = GI50 up to about 1.1 µM and inactive = higher.

Columns and labels:
Experiment in all cases: NCI tumour cell line growth inhibition, 48 h
[1] = test system: OVCAR-4
[2] = test system: XF498
[3] = test system: UACC-62
[4] = test system: HL-60
[5] = test system: SK-MEL-2
[6] = test system: EKVX
[7] = test system: U-251
[8] = test system: CAKI-1
[9] = test system: SNB-19
[10] = test system: CCRF-CEM
[11] = test system: SK-MEL-28
[12] = test system: UACC-257
[13] = test system: A498
[14] = test system: OVCAR-8
[15] = test system: HT-29
[16] = test system: IGROV-1
[17] = test system: LXFL 529
[18] = test system: SF-539
[19] = test system: M14
[20] = test system: DLD-1
[21] = test system: NCI-H522
[22] = test system: KM-20L2
[23] = test system: SW-620
[24] = test system: RXF 631
[25] = test system: MOLT-4
[26] = test system: A549
[27] = test system: HOP-92
[28] = test system: RPMI-8226
[29] = test system: SN12C
[30] = test system: Malme-3M
[31] = test system: TK-10
[32] = test system: HCT-15
[33] = test system: K562
[34] = test system: SF-268
[35] = test system: RXF 393
[36] = test system: SNB-75
[37] = test system: SK-MEL-5
[38] = test system: UO-31
[39] = test system: OVCAR-5
[40] = test system: NCI-H460
[41] = test system: HOP-18
[42] = test system: ACHN
[43] = test system: DMS-273
[44] = test system: M19-MEL
[45] = test system: SK-OV-3
[46] = test system: 786-0
[47] = test system: LOX IMVI
[48] = test system: NCI-H23
[49] = test system: COLO 205
[50] = test system: HCT-116
[51] = test system: OVCAR-3
[52] = test system: HCC 2998
[53] = test system: SF-295
[54] = test system: SNB-78
[55] = test system: NCI-H226
[56] = test system: KM12
[57] = test system: DMS-114
[58] = test system: HOP-62

Measured: GI50

Nc1ccccc1S(=O)(=O)N(CC(=O)O)c1ccccc1
> 100 µM: [32]
inactive: [1] > 100 µM | [2] > 100 µM | [3] > 100 µM | [4] > 100 µM | [5] > 100 µM | [6] > 100 µM | [7] > 100 µM | [8] > 100 µM | [9] > 100 µM | [10] > 100 µM | [11] > 100 µM | [12] > 100 µM | [13] > 100 µM | [14] > 100 µM | [15] > 100 µM | [16] > 100 µM | [17] > 100 µM | [18] > 100 µM | [19] > 100 µM | [20] > 100 µM | [21] > 100 µM | [22] > 100 µM | [23] > 100 µM | [24] > 100 µM | [25] > 100 µM | [26] > 100 µM | [27] > 100 µM | [28] > 100 µM | [29] > 100 µM | [30] > 100 µM | [31] > 100 µM | [33] > 100 µM | [34] > 100 µM | [35] > 100 µM | [36] > 100 µM | [37] > 100 µM | [38] > 100 µM | [39] > 100 µM | [40] > 100 µM | [41] > 100 µM | [42] > 100 µM | [43] > 100 µM | [44] > 100 µM | [45] > 100 µM | [46] > 100 µM | [47] > 100 µM | [48] > 100 µM | [49] > 100 µM

COc1cc(O)c2c(c1)C(=O)C=C(Cl)C2=O
inactive: [1] > 100 µM | [2] 42.2 µM | [3] > 100 µM | [4] > 100 µM | [50] 66.4 µM | [5] > 100 µM | [6] > 100 µM | [7] > 100 µM | [8] > 100 µM | [9] > 100 µM | [51] > 100 µM | [10] > 100 µM | [11] > 100 µM | [12] > 100 µM | [13] > 100 µM | [52] 83.6 µM | [14] 64.7 µM | [15] > 100 µM | [16] > 100 µM | [17] > 100 µM | [18] 68.4 µM | [19] > 100 µM | [20] 30.3 µM | [21] > 100 µM | [22] > 100 µM | [23] > 100 µM | [24] 51.4 µM | [25] > 100 µM | [53] > 100 µM | [26] > 100 µM | [27] > 100 µM | [28] > 100 µM | [54] > 100 µM | [30] > 100 µM | [31] > 100 µM | [33] > 100 µM | [34] > 100 µM | [35] > 100 µM | [36] > 100 µM | [37] 87.1 µM | [38] 16 µM | [39] > 100 µM | [55] 28.2 µM | [41] > 100 µM | [42] 94.6 µM | [56] > 100 µM | [43] > 100 µM | [44] > 100 µM | [45] > 100 µM | [57] > 100 µM | [46] > 100 µM | [47] > 100 µM | [48] > 100 µM | [49] > 100 µM
> 100 µM: [32]

O=c1c2cc(Br)cc(Br)c2[nH]c(=S)n1-c1ccccc1
inactive: [1] 86.3 µM | [2] 21.4 µM | [3] 91.2 µM | [50] 48.8 µM | [5] > 100 µM | [6] 58.1 µM | [7] 85.5 µM | [8] 54.5 µM | [9] 60.8 µM | [51] 60.1 µM | [10] 42.2 µM | [11] 50.7 µM | [12] > 100 µM | [13] > 100 µM | [52] 92.5 µM | [14] 63 µM | [15] > 100 µM | [16] > 100 µM | [18] 83 µM | [19] > 100 µM | [20] > 100 µM | [58] 88.5 µM | [22] > 100 µM | [23] 71.4 µM | [24] > 100 µM | [53] > 100 µM | [26] 63.1 µM | [27] 28.9 µM | [28] 28.9 µM | [29] 78.5 µM | [54] > 100 µM | [30] 82.4 µM | [31] 78.3 µM | [33] 32.4 µM | [34] 52.4 µM | [36] 32.1 µM | [37] 54.8 µM | [38] 40.5 µM | [39] > 100 µM | [40] > 100 µM | [55] 30.2 µM | [41] 35.3 µM | [42] > 100 µM | [56] > 100 µM | [43] > 100 µM | [44] > 100 µM | [45] > 100 µM | [57] 56.2 µM | [46] 99.1 µM | [47] 75.2 µM | [48] 28.4 µM | [49] > 100 µM
90.2 µM: [32]

CCOC(=O)NC(=O)c1cn(CCCO)c(=O)[nH]c1=O
inactive: [1] > 100 µM | [2] > 100 µM | [3] > 100 µM | [50] > 100 µM | [5] > 100 µM | [6] > 100 µM | [7] > 100 µM | [8] > 100 µM | [9] > 100 µM | [51] > 100 µM | [10] > 100 µM | [11] > 100 µM | [12] > 100 µM | [13] > 100 µM | [52] > 100 µM | [14] > 100 µM | [15] > 100 µM | [16] > 100 µM | [18] > 100 µM | [19] > 100 µM | [20] > 100 µM | [58] > 100 µM | [22] > 100 µM | [23] > 100 µM | [24] > 100 µM | [25] > 100 µM | [53] > 100 µM | [26] > 100 µM | [27] > 100 µM | [28] > 100 µM | [29] > 100 µM | [54] > 100 µM | [30] > 100 µM | [31] > 100 µM | [33] > 100 µM | [34] > 100 µM | [36] 45.6 µM | [37] > 100 µM | [38] > 100 µM | [39] > 100 µM | [40] > 100 µM | [55] > 100 µM | [41] > 100 µM | [42] > 100 µM | [56] > 100 µM | [43] > 100 µM | [44] > 100 µM | [45] > 100 µM | [57] > 100 µM | [46] > 100 µM | [47] > 100 µM | [48] > 100 µM | [49] > 100 µM
> 100 µM: [32]

O=C(O)c1ccccc1NS(=O)(=O)c1ccc([N+](=O)[O-])cc1
inactive: [1] > 100 µM | [2] > 100 µM | [3] > 100 µM | [50] > 100 µM | [5] > 100 µM | [6] > 100 µM | [7] > 100 µM | [8] > 100 µM | [9] > 100 µM | [51] > 100 µM | [10] > 100 µM | [11] > 100 µM | [12] > 100 µM | [52] > 100 µM | [14] > 100 µM | [15] > 100 µM | [16] > 100 µM | [17] > 100 µM | [18] > 100 µM | [19] > 100 µM | [21] > 100 µM | [58] > 100 µM | [22] > 100 µM | [23] > 100 µM | [24] > 100 µM | [25] > 100 µM | [53] > 100 µM | [26] > 100 µM | [28] > 100 µM | [29] > 100 µM | [54] > 100 µM | [30] > 100 µM | [31] > 100 µM | [33] > 100 µM | [34] > 100 µM | [35] > 100 µM | [36] > 100 µM | [37] > 100 µM | [38] > 100 µM | [39] > 100 µM | [40] > 100 µM | [55] > 100 µM | [41] > 100 µM | [42] > 100 µM | [56] > 100 µM | [43] > 100 µM | [45] > 100 µM | [46] > 100 µM | [47] > 100 µM | [48] > 100 µM | [49] > 100 µM
> 100 µM: [32]
